In PubChem BioAssay AID318 (DTP/NCI, 2004):
Several values for one entry are separate records, joined by “and”; a condition that tells them apart may be missing. Equal values may be shown once. Inconclusive results and toxic doses are left out. Starred links: 1 amine or outer side, 2 acyl side, 3 side chain; linkers in the order of their positions; H or OH if unused. Positions of bridges follow the written chain, without caps; N, C: chain ends. Non-standard residues stand in square brackets, D forms with d. Residues, ends and D or L forms follow the SMILES beside them. Chains are numbered I, II in the order given. Actinocin(1to9) = Cc1c2oc3c(C)ccc(C(=O)[*:2])c3nc-2c(C(=O)[*:1])c(N)c1=O; Actinocin(9to1) = Cc1c2oc3c(C)ccc(C(=O)[*:1])c3nc-2c(C(=O)[*:2])c(N)c1=O; NMeV = CN[CH](C(=O)O)C(C)C; Aze = O=C(O)[CH]1CCN1; Sar = CNCC(=O)O

Test system: BDF1 mice, P815 leukemia ip, survival T/C
Test: NCI In Vivo Anticancer Drug Screen. Data for tumor model P815 Mast Cell Leukemia (Ascitic) (intraperitoneal) in B6D2F1 (BDF1) mice
Conditions: higher = longer survival
Method: The antitumor activity of compounds was measured in mice bearing transplantable tumors. Survival or tumor size were measured and the results are expressed as the measurement made in the treated group (T) divided by the measurement made in the vehicle treated control group (C). The tumor model used in this assay is P815 Mast Cell Leukemia (Ascitic) (intraperitoneal) in B6D2F1 (BDF1) mice

[1] = endpoint: median survival time, dose: 450.0 micrograms/kg/injection, schedule: Q01DX001 (ip), vehicle: saline + alcohol
[2] = endpoint: median survival time, dose: 750.0 micrograms/kg/injection, schedule: Q01DX001 (ip), vehicle: saline + alcohol
[3] = endpoint: median survival time, dose: 750.0 micrograms/kg/injection, schedule: Q04DX003 (ip), vehicle: saline + alcohol
[4] = endpoint: median survival time, dose: 1250.0 micrograms/kg/injection, schedule: Q04DX003 (ip), vehicle: saline + alcohol
[5] = endpoint: survival time, mean or median, dose: 200.0 mg/kg/injection, schedule: Q01DX010 (ip), vehicle: saline
[6] = endpoint: survival time, mean or median, dose: 50.0 mg/kg/injection, schedule: Q01DX010 (ip), vehicle: saline
[7] = endpoint: survival time, mean or median, dose: 100.0 mg/kg/injection, schedule: Q01DX010 (ip), vehicle: saline

## CC(C)CNS(=O)(=O)c1ncnc2nc[nH]c12
endpoint: survival time, mean or median, dose: 37.5 mg/kg/injection, schedule: Q01DX015 (ip), vehicle: carboxymethylcellulose (CMC)
  T/C: 97 % of control

## CC[n+]1c(-c2ccccc2)c2cc(N)ccc2c2ccc(N)cc21
endpoint: survival time, mean or median, dose: 0.12 mg/kg/injection, schedule: Q01DX015 (ip), vehicle: saline
  T/C: 105 % of control
endpoint: survival time, mean or median, dose: 0.25 mg/kg/injection, schedule: Q01DX015 (ip), vehicle: saline
  T/C: 109 % of control
endpoint: survival time, mean or median, dose: 0.5 mg/kg/injection, schedule: Q01DX015 (ip), vehicle: saline
  T/C: 120 % of control
endpoint: survival time, mean or median, dose: 1.0 mg/kg/injection, schedule: Q01DX015 (ip), vehicle: saline
  T/C: 117 % of control
endpoint: survival time, mean or median, dose: 2.0 mg/kg/injection, schedule: Q01DX015 (ip), vehicle: saline
  T/C: 208 % of control
endpoint: survival time, mean or median, dose: 5.0 mg/kg/injection, schedule: Q01DX015 (ip), vehicle: saline
  T/C: 163 % of control
endpoint: survival time, mean or median, dose: 10.0 mg/kg/injection, schedule: Q01DX015 (ip), vehicle: saline
  T/C: 87 % of control

## CCOC(=O)c1[nH]c2ccccc2c1CN(CCCl)CCCl
endpoint: survival time, mean or median, dose: 10.0 mg/kg/injection, schedule: Q01DX010 (ip), vehicle: saline
  T/C: 105 % of control
endpoint: survival time, mean or median, dose: 20.0 mg/kg/injection, schedule: Q01DX010 (ip), vehicle: saline
  T/C: 115 % of control
endpoint: survival time, mean or median, dose: 40.0 mg/kg/injection, schedule: Q01DX010 (ip), vehicle: saline
  T/C: 115 % of control

## Cc1c2oc3c(C)ccc(C(=O)NC4C(=O)NC(C(C)C)C(=O)N5CCC5C(=O)N(C)CC(=O)N(C)C(C(C)C)C(=O)OC4C)c3nc-2c(C(=O)NC2C(=O)NC(C(C)C)C(=O)N3CCC3C(=O)N(C)CC(=O)N(C)C(C(C)C)C(=O)OC2C)c(N)c1=O (stereo unspecified) (I: TV[Aze][Sar][NMeV] / II: TV[Aze][Sar][NMeV]; ester I:1-I:C, II:1-II:C; linker I:N-II:N via Actinocin(9to1); configuration not given here)
endpoint: median survival time, dose: 270.0 micrograms/kg/injection, schedule: Q04DX003 (ip), vehicle: saline + alcohol
  T/C: 118 % of control
[1]
  T/C: 118 % of control
endpoint: median survival time, dose: 450.0 micrograms/kg/injection, schedule: Q04DX003 (ip), vehicle: saline + alcohol
  T/C: 113 % of control
[2]
  T/C: 121 % of control
[3]
  T/C: 97 % of control
endpoint: median survival time, dose: 1250.0 micrograms/kg/injection, schedule: Q01DX001 (ip), vehicle: saline + alcohol
  T/C: 105 % of control
[4]
  T/C: 92 % of control

## O=C(Nc1ccc(NC(=O)Nc2ccc(C3=NCCN3)cc2)cc1)Nc1ccc(C2=NCCN2)cc1
endpoint: survival time, mean or median, dose: 110.0 mg/kg/injection, schedule: Q01DX010 (ip), vehicle: saline
  T/C: 113 % of control
endpoint: survival time, mean or median, dose: 165.0 mg/kg/injection, schedule: Q01DX010 (ip), vehicle: saline
  T/C: 113 % of control
endpoint: survival time, mean or median, dose: 250.0 mg/kg/injection, schedule: Q01DX010 (ip), vehicle: saline
  T/C: 100 % of control
endpoint: survival time, mean or median, dose: 375.0 mg/kg/injection, schedule: Q01DX010 (ip), vehicle: saline
  T/C: 104 % of control

## CN(C)CC(=O)c1ccc(O)c(O)c1
[5]
  T/C: 120 % of control
endpoint: survival time, mean or median, dose: 300.0 mg/kg/injection, schedule: Q01DX010 (ip), vehicle: saline
  T/C: 100 % of control
endpoint: survival time, mean or median, dose: 450.0 mg/kg/injection, schedule: Q01DX010 (ip), vehicle: saline
  T/C: 95 % of control

## O=C(Nc1ccc(C2=NCCN2)cc1)c1ccc(NC(=O)c2ccc(C3=NCCN3)cc2)cc1
endpoint: survival time, mean or median, dose: 18.0 mg/kg/injection, schedule: Q01DX010 (ip), vehicle: saline
  T/C: 112 % of control
endpoint: survival time, mean or median, dose: 27.0 mg/kg/injection, schedule: Q01DX010 (ip), vehicle: saline
  T/C: 116 % of control

## CC(=O)OCC1OC(n2cnc3c(=S)nc(N)[nH]c32)C(OC(C)=O)C1OC(C)=O (stereo unspecified)
endpoint: survival time, mean or median, dose: 1.5 mg/kg/injection, schedule: Q01DX015 (ip), vehicle: other
  T/C: 113 % of control
endpoint: survival time, mean or median, dose: 3.1 mg/kg/injection, schedule: Q01DX015 (ip), vehicle: other
  T/C: 110 % of control
endpoint: survival time, mean or median, dose: 6.2 mg/kg/injection, schedule: Q01DX015 (ip), vehicle: other
  T/C: 108 % of control
endpoint: survival time, mean or median, dose: 12.5 mg/kg/injection, schedule: Q01DX015 (ip), vehicle: other
  T/C: 88 % of control

## N[C@@H](Cc1ccc(N(CCCl)CCCl)cc1)C(=O)O
endpoint: survival time, mean or median, dose: 1.0 mg/kg/injection, schedule: Q01DX015 (ip), vehicle: carboxymethylcellulose (CMC)
  T/C: 231 % of control
endpoint: survival time, mean or median, dose: 2.0 mg/kg/injection, schedule: Q01DX015 (ip), vehicle: carboxymethylcellulose (CMC)
  T/C: 257 % of control
endpoint: survival time, mean or median, dose: 4.0 mg/kg/injection, schedule: Q01DX015 (ip), vehicle: carboxymethylcellulose (CMC)
  T/C: 182 % of control and 195 % of control
endpoint: survival time, mean or median, dose: 8.0 mg/kg/injection, schedule: Q01DX015 (ip), vehicle: carboxymethylcellulose (CMC)
  T/C: 103 % of control

## CCCCN(CCCC)CCCCCN
endpoint: survival time, mean or median, dose: 5.0 mg/kg/injection, schedule: Q01DX015 (ip), vehicle: carboxymethylcellulose (CMC)
  T/C: 111 % of control
endpoint: survival time, mean or median, dose: 10.0 mg/kg/injection, schedule: Q01DX015 (ip), vehicle: carboxymethylcellulose (CMC)
  T/C: 103 % of control
endpoint: survival time, mean or median, dose: 20.0 mg/kg/injection, schedule: Q01DX015 (ip), vehicle: carboxymethylcellulose (CMC)
  T/C: 104 % of control
endpoint: survival time, mean or median, dose: 30.0 mg/kg/injection, schedule: Q01DX015 (ip), vehicle: carboxymethylcellulose (CMC)
  T/C: 105 % of control

## O=C(O)CC(NC(=O)CP(=O)(O)O)C(=O)O (stereo unspecified)
endpoint: median survival time, dose: 62.2 mg/kg/injection, schedule: Q04DX003 (ip), vehicle: saline
  T/C: 99 % of control
endpoint: median survival time, dose: 104.0 mg/kg/injection, schedule: Q04DX003 (ip), vehicle: saline
  T/C: 99 % of control
endpoint: median survival time, dose: 173.0 mg/kg/injection, schedule: Q04DX003 (ip), vehicle: saline
  T/C: 97 % of control
endpoint: median survival time, dose: 288.0 mg/kg/injection, schedule: Q04DX003 (ip), vehicle: saline
  T/C: 107 % of control
endpoint: median survival time, dose: 480.0 mg/kg/injection, schedule: Q04DX003 (ip), vehicle: saline
  T/C: 92 % of control

## CCCNc1ncnc2[nH]ncc12
endpoint: survival time, mean or median, dose: 3.13 mg/kg/injection, schedule: Q01DX010 (ip), vehicle: saline
  T/C: 95 % of control and 104 % of control
endpoint: survival time, mean or median, dose: 6.25 mg/kg/injection, schedule: Q01DX010 (ip), vehicle: saline
  T/C: 100 % of control and 116 % of control
endpoint: survival time, mean or median, dose: 12.5 mg/kg/injection, schedule: Q01DX010 (ip), vehicle: saline
  T/C: 95 % of control and 100 % of control
endpoint: survival time, mean or median, dose: 25.0 mg/kg/injection, schedule: Q01DX010 (ip), vehicle: saline
  T/C: 95 % of control

## Cc1cc2nc3c(=O)[nH]c(=O)nc-3n(CC(O)C(O)C(O)C(O)CO)c2cc1C (stereo unspecified)
[6]
  T/C: 100 % of control
[7]
  T/C: 100 % of control
[5]
  T/C: 88 % of control and 100 % of control
endpoint: survival time, mean or median, dose: 400.0 mg/kg/injection, schedule: Q01DX010 (ip), vehicle: saline
  T/C: 88 % of control

## O=C(Nc1ccc(NC2=NCCN2)cc1)c1ccc(C(=O)Nc2ccc(NC3=NCCN3)cc2)cc1
endpoint: survival time, mean or median, dose: 2.0 mg/kg/injection, schedule: Q01DX010 (ip), vehicle: saline
  T/C: 110 % of control and 111 % of control
endpoint: survival time, mean or median, dose: 4.0 mg/kg/injection, schedule: Q01DX010 (ip), vehicle: saline
  T/C: 105 % of control and 113 % of control

## COc1ccc(C[n+]2cc([O-])on2)cc1
endpoint: survival time, mean or median, dose: 12.5 mg/kg/injection, schedule: Q01DX015 (ip), vehicle: carboxymethylcellulose (CMC)
  T/C: 111 % of control
endpoint: survival time, mean or median, dose: 25.0 mg/kg/injection, schedule: Q01DX015 (ip), vehicle: carboxymethylcellulose (CMC)
  T/C: 114 % of control
endpoint: survival time, mean or median, dose: 100.0 mg/kg/injection, schedule: Q01DX015 (ip), vehicle: carboxymethylcellulose (CMC)
  T/C: 107 % of control

## O=C1C(NC(=O)C2CCCCC2)=C(N2CC2)C(=O)C(NC(=O)C2CCCCC2)=C1N1CC1
[6]
  T/C: 88 % of control
[7]
  T/C: 94 % of control

## NC(Cc1ccc(N(CCCl)CCCl)cc1)C(=O)O (stereo unspecified)
endpoint: survival time, mean or median, dose: 4.0 mg/kg/injection, schedule: Q01DX010 (ip), vehicle: other
  T/C: 120 % of control
endpoint: survival time, mean or median, dose: 8.0 mg/kg/injection, schedule: Q01DX010 (ip), vehicle: other
  T/C: 100 % of control

## Cc1c2oc3c(C)ccc(C(=O)NC4C(=O)NC(C(C)C)C(=O)N5CCCC5C(=O)N(C)CC(=O)N(C)C(C(C)C)C(=O)OC4C)c3nc-2c(C(=O)NC2C(=O)NC(C(C)C)C(=O)N3CCC3C(=O)N(C)CC(=O)N(C)C(C(C)C)C(=O)OC2C)c(N)c1=O (stereo unspecified) (I: TV[Aze][Sar][NMeV] / II: TVP[Sar][NMeV]; ester I:1-I:C, II:1-II:C; linker I:N-II:N via Actinocin(1to9); configuration not given here)
[1]
  T/C: 116 % of control
[2]
  T/C: 118 % of control
[3]
  T/C: 96 % of control
[4]
  T/C: 93 % of control
endpoint: median survival time, dose: 2080.0 micrograms/kg/injection, schedule: Q01DX001 (ip), vehicle: saline + alcohol
  T/C: 86 % of control
